Laboratory results as given in patent publication US7589080B2, “β-cyclodextrin compositions, and use to prevent transmission of sexually transmitted diseases” (priority 2000, dated 2009).

Test system: HIV
Assay: Luciferase-based single cycle infectivity assay in LuSIV cells
Type: cell-based, HIV-1
Conditions: LuSIV cells treated with 20 mM; all viral input levels
Description: The effect of 2-OH-βCD on infectivity of HIV was measured in a Luciferase-based single cycle infection assay as previously described (Liao et al., supra, 2000). LuSIV cells were treated with 20 mM 2-OH-βCD in iRPMI or iRPMI alone for 1 hr at 37° C. Cells were then washed with iRPMI before being resuspended in cRPMI at a density of 2×10^6/ml. Cells in 100 Tl were mixed with cRPMI or with dilutions of virus supernatant (62 to 500 pg/ml of p24) from 2-OH-βCD-treated or untreated PM1 cells and allowed to incubate overnight (16 hr) at 37° C. The LuSIV cells were washed with PBS and lysed with 100 Tl of Reporter Lysis Buffer (Promega). After centrifugation at 13,000×g for 30 seconds, 10, μl of lysate were added to 100 μl Luciferase Reagent (Promega) in an opaque 96 well plate and luminescence was measured on a Packard Lumicount luminometer (Downers Grove, Ill.).
The effects of βCD treatment on HIV infectivity were measured in a sensitive single-cycle infection assay based on a cell line transfected with an LTR-luciferase cassette. […] Quantitative measurements of single round infection are obtained with this assay system (Roos et al., Virology 273:307-315, 2000, which is incorporated herein by reference). […]

Q: How did the “Reduction of HIV infection of LuSIV cells” value turn out when “2-hydroxypropyl-β-cyclodextrin [2-OH-βCD]” was run?
A: Its value is ~100%.
